Molecules are shown by their SMILES. A value given as a limit tells only on which side of the number the result lay.

For 85 molecules, melting point results are on record in a melting point compilation (Tetko et al.; mined from patent text by program, amines drawn as free bases though some values may be those of a salt).

As a reminder, the melting point is the temperature, or range, at which the solid turns liquid. `O=c1ccn(-c2cccc(S(=O)(=O)c3nc4ccccc4[nH]3)c2)nc1-c1ccnn1-c1ccccc1` displayed a melting point of 160 to 161 °C.
Under `N=C(NO)c1ccc(-c2cccc(-c3nc4ccc(C(=N)NO)cc4[nH]3)n2)cc1` stands greater than 290 °C; under `COC(=O)c1ccc2c(=O)n(CC(C)C)c(CNC(=O)OC(C)(C)C)c(-c3cccc(F)c3)c2c1`, 206 to 208 °C; under `O=c1c2cc(F)ccc2[nH]c(=S)n1-c1ccccc1Cl`, 295 to 297 °C.
Under `O=c1cc(-c2ccccc2)n(-c2ccccc2)c(-c2ccccc2)c1C(F)(F)F` stands 222 to 225 °C; under `O=C(c1ccsc1)c1cccc(-c2c(O)c3ccc(Cl)cc3[nH]c2=O)c1`, 287 to 290 °C; under `COCc1cccc(-c2c(Cl)ncn2-c2ccc(S(C)(=O)=O)cc2)c1`, 178 °C.
`COc1ccc(CSC#N)cc1OCc1ccccc1`: the melting point fell in the range of 70 to 74 °C.
In turn, `Cc1nc(N)c2nc(CO)n(NC3CCCC3)c2c1C` yielded a melting point of 254 to 256 °C.
In the case of `O=Cc1ccc(-c2ccc(-c3cn([C@H]4CN5CCC4CC5)nn3)cc2)s1`, the melting point was found to be 228 °C.
For `Fc1ccc(C=C(c2ccccc2)C(F)(F)F)cc1`, the melting point was 35 to 41 °C.
Under `OCCOc1ccc2ncccc2c1` stands 68 to 70 °C; under `Cc1ccsc1C(=O)C(=CN(C)C)c1ccccc1[N+](=O)[O-]`, 101 to 103 °C; under `O=C(O)C1CCc2cc(O)ccc2O1` (racemic), 175 to 177 °C.
In the case of `CCOC(=O)c1c(O)c2ccsc2n(Cc2ccccc2)c1=O`, the melting point was determined as 146 °C.
`CCN1COc2cc3c(=O)n(CCc4cccc(F)c4)nnc3cc2C1=O` displayed a melting point of 161 to 163 °C.
For `COC(=O)CCC(C)C(=O)N1CCC[C@H]1C(=O)O` (stereo not given in full) the value was 174 to 175 °C.
For `O=C(NCCO)c1cccc(-c2ccc3c(c2)N(Cc2cc(Cl)cc(Cl)c2)CC3)c1` the value was 121 to 128 °C; for `CC(C)OC(=O)C(C(=O)O)c1ccccc1` (stereo not given), 64 to 66 °C; for `CCCC(=O)OCC(=O)C1(OC(C)=O)CCC2C3CC(C)C4=CC(=O)CCC4(C)C3C(O)CC21C` (stereo not given), 98 to 120 °C.
Consider `Nc1c(Cl)cc(C(O)CNCCCCCCOCCCc2ccc(Br)cn2)cc1Cl` (stereo not given), for which the melting point was in the range of 52 to 55 °C.
For `C[C@@H]1NC(=O)C[C@]1(C)O` the value was 169 to 173 °C; for `CC(C)(C)n1nc(Cc2ccccc2)c2c(N)nc(-c3ccncc3)nc21`, 188 to 189 °C.
Under `CCOC(=O)c1ncc(C)c(-c2ccccc2)c1C(=O)N(CCO)Cc1cc(C(F)(F)F)cc(C(F)(F)F)c1` stands 138 to 139 °C; under `COc1ccc(C2=NN(C(C)CCC(=O)Nc3ccc(C4=NNC(=O)CC4C)cc3)C(=O)C3CC=CCC23)cc1OC` (stereo not given), 154 to 157 °C.
Consider `COc1ccc(-c2nc(Sc3ccc(C)cc3)n(Cc3ccccc3)c2-c2ccc(OC)cc2)cc1`, for which the melting point lay in the range of 115 to 117 °C.
The molecule `CCC1(CC)C(=O)c2cc(OCC(=O)O)c(C)c(C)c2C1=O` showed a melting point of 134 to 136 °C.
With `CCCn1ccc2c(c1=O)C(c1cccc(Cl)c1Cl)C(C(=O)OCC)=C(C)N2` (stereo not given), the melting point was 264 to 265 °C.
Take `NS(=O)(=O)OCCOc1ccc(O)cc1`: the melting point fell in the range of 92 to 93 °C.
For the molecule `C(=Cc1ccc(-c2nnc(-c3ccccc3)o2)cc1)c1ccc(-c2cnn(-c3ccccc3)n2)cc1`, the melting point lay within 209 to 210 °C.
`CC(=O)c1ccc(-c2cccnc2)s1` returned a melting point of 104 to 105 °C.
On to `CC1(O)CC(C)(C)N(N=Cc2ccccc2)C(C)(C)C1`, for which the melting point was found to be 84 °C.
Consider `Cc1cccc(NC(=O)NCC(=O)N(CC(=O)OC(C)(C)C)c2ccc3c(c2)OCO3)c1`, for which the melting point amounted to 142 °C.
Consider `CCCCCN(CCc1c[nH]c2ccccc12)C(=O)CCCC(=O)OC`, for which the melting point was in the range of 70 to 71 °C.
For `O=C(Cl)N1CCOCC1` the value was 138 to 139 °C.
Under `COc1ccc(N(CCCC(=O)O)C(=O)CCCN(C(=O)c2ccc(Cl)cc2)c2c(C)cccc2C)cc1` stands 119 to 121 °C; under `Cc1nc(C[C@H]2CC[C@@](C)(NCC(=O)N3C[C@@H](F)C[C@H]3C#N)C2(C)C)no1`, 121 to 123 °C.
Under `COC(=O)[C@@H](O)[C@H](CC(C)C)NC(=O)[C@H](Cc1c[nH]cn1)NC(=O)[C@H](Cc1cccc2ccccc12)NC(=O)OCc1ccccc1` stands 110 to 114 °C.
`CCOC(=O)CN1C(=O)COc2c(Cl)nc(C)nc21` registered a melting point of 69 to 70 °C.
`CCCn1nc(-c2ccc(OC(=O)CC(C)(C)C)c(F)c2)c2cccc(Cl)c21`: the melting point lay within 58 to 59 °C.
For `COCO[C@@H](C(=O)OC)[C@@H](Sc1ccccc1[N+](=O)[O-])c1ccc(OC)cc1` the value was 155 to 158 °C; for `O=C1CCCc2sc(CCN3CCC(c4coc5cc(F)ccc45)CC3)cc2N1`, 176 to 178 °C; for `CCN(CC)C(=O)COc1ccc(CCCOC(=O)NCC2CC2)c(Oc2ncc(C(F)(F)F)cc2Cl)c1`, 94 to 94.5 °C.
Molecule `Cc1cccc(-c2cnc3c(N)ncnc3n2)c1` registered a melting point of 248 to 250 °C.
Under `O=C(NCCCCOc1ccc(-c2ccc(=O)[nH]n2)cc1)c1cccnc1` stands 155 to 157 °C; under `Cc1cc(C#N)c2c(c1C)C(=O)CC2`, 160 to 163 °C.
`NC(=O)Cc1ccc2[nH]ccc2c1` yielded a melting point of 146 to 147 °C.
For `Cn1c(C(F)(F)F)cc(=O)n(-c2cc(N(S(C)(=O)=O)S(C)(=O)=O)c(Cl)cc2F)c1=O` the value was 282 to 285 °C.
Under `O=C1Nc2ccccc2Sc2cc(C(F)(F)F)ccc21` stands 216 to 217 °C; under `COc1ccc2c(c1)C(CCC(C)C)(C(F)(F)F)OCC(=O)N2` (stereo not given), 123 to 130 °C; under `CC(C)(C)NC(=O)[C@@H]1CCCN1C(=O)[C@@H](O)[C@H](Cc1ccccc1)NC(=O)[C@H](CC(N)=O)NC(=O)COC1CCN(C(=O)OCc2ccccc2)CC1`, 98 to 104 °C.
For `COc1cc(C2=C(c3cn(CCCNC(=O)C(CC(C)C)NC(=O)OC(C)(C)C)c4ccccc34)C(=O)NC2=O)cc(OC)c1OC` (stereo not given) the value was 140 to 142 °C.
Regarding `Clc1cc2c3c(c1)C(c1ccccc1)Nc1ccccc1N3CC2` (stereo not given), the melting point was 192 to 194 °C.
Molecule `O=C(c1cccnc1)N1CC2CSc3ccccc3C2=N1` (stereo not given) gave a melting point of 173 to 175 °C.
In turn, `Clc1ccccc1Oc1ncc2c(-c3cccs3)n[nH]c2n1` returned a melting point of 221 to 223 °C.
Under `COC(=O)CCSCC(=O)c1cc2c(cc1Cl)NC(=O)C2` stands 75 to 77 °C; under `CCOC(=O)c1ccc(-c2ccc(C=O)cc2)cc1`, 57 to 59 °C.
In turn, `CCc1c(C(=O)Cl)cnn1-c1ccc(Cl)cc1` came in with a melting point of 105 to 107 °C.
The molecule `COc1ccc(Br)c2c1-c1ccc(NS(C)(=O)=O)cc1C(c1ccccc1)O2` (stereo not given) displayed a melting point of 122 to 123 °C.
Under `CN(C)S(=O)(=O)C=C(C(=O)C1CCCCC1)c1cccc([N+](=O)[O-])c1` stands 115 to 118 °C; under `CCCOc1cccc2cc(-c3ccc4c(c3)C=C(C(=O)Nc3ccc(CN(C)C5CCOCC5)cc3)CCS4(=O)=O)oc12`, 246 to 248 °C.
For `Cc1ccc(-c2nc(C(=O)O)c(C)s2)s1` the value was 160 to 161 °C; for `COC(=O)c1nnn(Cc2ccccc2F)c1C(=O)OC`, 203 to 205 °C.
`CC(C)(C)OC(=O)N[C@H](CCCNC(N)=N[N+](=O)[O-])C(=O)NCc1ccc(CNC(N)=O)cc1` displayed a melting point of 172 °C.
Under `COc1cc(OC)cc(N2CCN(C(=O)Nc3cc(-c4cccnc4)nc4ccccc34)CC2)c1` stands 95 to 96 °C.
`COC(=O)c1ncn2c1C(C)N=C(c1ccccc1F)c1cc(Cl)ccc1-2` (stereo not given) yielded a melting point of 190 to 191 °C.
`CCOC(=O)c1cn(C)c2cc(Br)ccc2c1=O` returned a melting point of 189 to 191 °C.
Under `Cn1nc(-c2cccc(N3Cc4cc(C(C)(C)C)ccc4C3=O)c2CO)cc(Nc2ccccn2)c1=O` stands 236 to 237 °C; under `COc1ccc(COc2cccc(C(C)O)c2OCc2ccc(OC)cc2)cc1` (stereo not given), 88 to 89 °C; under `CCOC(=O)c1ccc(-c2c(F)ccc([N+](=O)[O-])c2F)cc1`, 85 to 86.7 °C.
For `CCCCN1CCC(CNC(=O)c2ccc(N)n3cc(Cl)nc23)CC1` the value was 113 °C; for `Cc1cc(CCCCCOc2ccc(C#N)cc2)on1`, 57 °C.
Under `COc1cccc(/C=C/C(=O)N2CC(CCl)c3c2cc(N)c2ccccc32)c1` (stereo not given) stands greater than 200 °C.
`COc1ccc(Sc2ncccc2C(=O)NCC23CC4CC(CC(C4)C2)C3)cc1` gave a melting point of 130 to 131 °C.
For `CON=C1CN(c2c(F)cc3c(=O)c(C(=O)O)cn(C4CC4)c3c2F)CC12CN(C(=O)OC(C)(C)C)C2` the value was 255 to 256 °C.
Under `CCCc1nn(C)c2c(=S)[nH]c(-c3cc(S(=O)(=O)N4C[C@@H](C)N[C@@H](C)C4)ccc3OCC)nc12` stands 196 to 199 °C; under `O=C(NC(=O)c1ccc(F)cc1Cl)Nc1ccc(Cl)c(Cl)c1`, 208 °C.
For `CCNC(=O)C1CCN(Cc2cnc3cc(NC(=O)c4ccc(-c5ccc(F)cc5)cc4)c(C)cc3c2)CC1` the value was 254 °C; for `CCOc1ccc2c(c1)n(C1CCCCC1)c(=O)n2S(=O)(=O)c1ccc(C(=O)NC(C)(C)CN(C)C)cc1OC`, 161 °C.
The molecule `COc1ccc(Cl)c(C(=O)NCCc2ccc(S(=O)(=O)NC(=O)c3ccc(C(=O)NCCO)nc3)cc2)c1` gave a melting point of 135 to 137 °C.
With `CSc1c2n(c3ccccc13)CCC2N(O)C(N)=O` (stereo not given), the melting point stood at 178 °C.
`COCOc1ccc(C=O)c(O)c1` displayed a melting point of 52 to 53 °C.
The molecule `NC(=O)CN(CCCc1ccc(F)cc1)C1CCC(c2ccc3[nH]c(=O)oc3c2)CC1` (stereo not given) registered a melting point of 266 to 270 °C.
Under `COC(=O)c1cn(C2CC2)c2nc(C)ccc2c1=O` stands 204 to 205 °C; under `O=C(CCCCCCCCCCCCCCCO)OCOC(=O)CCCCCCCCCCCCCCCO`, 96.2 °C.
